Source: US5482945A, “Innovative technique for immunosuppression involving administration of rapamycin loaded formed blood elements” (American Home Products Corporation, priority 1992, dated 1996)
Read-outs that look alike come from different tables or passages of the source.

Columns and labels:
red blood cells [1] = settings: cited from earlier work
red blood cells [2] = settings: cited from earlier work; remark: listed apart in the source
[3] = system: peripheral blood mononuclear cells and erythrocytes; settings: cited from earlier work
T-lymphocytes = settings: cited from earlier work
[4] = system: transplanted tissue or organ; settings: parenteral administration to donor before transplant; cited from earlier work
[5] = system: FK-506 binding protein (FKBP); settings: cited from earlier work
transplant rejection = settings: cited from earlier work
[6] = Whole blood to plasma concentration ratio in humans receiving rapamycin; format: in vivo; settings: human, read-out: ratio of whole blood to plasma concentrations
Description: (§1) In human blood at rapamycin concentrations between 76 and 189 ng/ml, the whole blood and FBE to plasma ratios after 30 minutes incubation at 37° C. were 12±2 and 23.7±3.9 respectively. Similarly, at a concentration of 482 ng/ml, the ratios were 1.1 and 1.3 respectively. The ratios of whole blood to plasma concentrations in monkeys receiving rapamycin was 10±6 and in humans the ratio was 12±2, and indication that a species difference exists between primates and other mammals.

[7] = system: restenosis (smooth muscle cell proliferation and internal thickening following vascular injury); settings: cited from earlier work
[8] = Equilibrium of rapamycin between formed blood elements (FBE), whole blood and plasma in human blood; format: in vitro ADME; settings: for Kp: formed blood elements, read-out: FBE to plasma ratio
Description: as §1

FKBP = assay: Binding of rapamycin to FKBP in formed blood elements (erythrocytes)
erythrocytes = assay: Hemolysis by rapamycin; format: cell-based
[9] = system: experimental allergic encephalomyolitis; settings: rats; cited from earlier work
[10] = system: lymphatic leukemia, colon and mammary cancers, melanocarcinoma and ependymoblastoma; settings: cited from earlier work
adjuvant arthritis = settings: rats; cited from earlier work
[11] = Whole blood to plasma concentration ratio in monkeys receiving rapamycin; format: in vivo; settings: monkey, read-out: ratio of whole blood to plasma concentrations
Description: as §1

mouse T-cells = settings: combination with Cyclosporin A; ionomycin + PMA stimulation; cited from earlier work
graft rejection = settings: donor pretreatment intravenously, rats; cited from earlier work
[12] = system: humoral (IgE-like) antibodies; settings: rats, albumin allergic challenge; cited from earlier work
[13] = Equilibrium of rapamycin between formed blood elements (FBE), whole blood and plasma in rat blood; format: in vitro ADME; settings: for Kp: formed blood elements, read-out: FBE to plasma ratio
Description: In human blood, erythrocytes comprise about 85 to 90 percent of the formed blood elements (microscopically visible). Human whole blood is comprised of about 46% formed blood elements and 54% plasma. Equilibrium of rapamycin between the rapamycin-loaded formed blood elements (FBE) and the plasma is quickly established and is seen to be species dependent. In rat blood containing rapamycin at a concentration of 38 ng/ml, the whole blood and FBE to plasma ratios were 1.3 and 1.7 respectively and at a concentration of 200 ng/ml the ratios were 0.8 and 0.5 respectively.

[14] = rapamycin 76 to 189 ng/ml, 30 minutes incubation at 37° C.

C[C@@H]1[C@H](O)[C@@H](C)/C=C/C=C/C=C/C=C/C=C/C=C/C=C/[C@H](O[C@@H]2O[C@H](C)[C@@H](O)[C@H](N)[C@@H]2O)C[C@@H]2O[C@](O)(C[C@@H](O)C[C@@H](O)[C@H](O)CC[C@@H](O)C[C@@H](O)CC(=O)O[C@H]1C)C[C@H](O)[C@H]2C(=O)O [Amphotericin B]
effect on sterols and cell membranes (red blood cells [1]): binds to sterols and perforates cell membranes

COc1cccc2c1C(=O)c1c(O)c3c(c(O)c1C2=O)C[C@@](O)(C(C)=O)C[C@@H]3O[C@H]1C[C@H](N)[C@H](O)[C@H](C)O1 [Daunomycin]
binding to red blood cells (red blood cells [2]; red blood cells first treated with Amphotericin B): will bind daunomycin
binding to red blood cells (red blood cells [2]; untreated red blood cells): will not bind to red blood cells

C=CC[C@@H]1/C=C(\C)C[C@H](C)C[C@H](OC)[C@H]2O[C@@](O)(C(=O)C(=O)N3CCCC[C@H]3C(=O)O[C@H](/C(C)=C/[C@@H]3CC[C@@H](O)[C@H](OC)C3)[C@H](C)[C@@H](O)CC1=O)[C@H](C)C[C@@H]2OC [FK-506]
absorption and retention by peripheral blood mononuclear cells and erythrocytes [3]: absorbed and retained
activation of T-lymphocytes (T-lymphocytes): inhibits the activation of T-lymphocytes
rejection of the transplanted tissue or organ [4]: reduce rejection of the transplanted tissue or organ
binding with FKBP in the erythrocytes [5]: bind reversibly

O=P1(N(CCCl)CCCl)NCCCO1 (centres unmarked) [cyclophosphamide]
rejection of the transplanted tissue or organ [4]: reduce rejection of the transplanted tissue or organ

CO[C@H]1C[C@@H]2CC[C@@H](C)[C@@](O)(O2)C(=O)C(=O)N2CCCC[C@H]2C(=O)O[C@H]([C@H](C)C[C@@H]2CC[C@@H](O)[C@H](OC)C2)CC(=O)[C@H](C)/C=C(\C)[C@@H](O)[C@@H](OC)C(=O)[C@H](C)C[C@H](C)/C=C/C=C/C=C/1C [rapamycin]
transplant rejection (transplant rejection): inhibition of transplant rejection
blood plasma ratio [6]: 12 ± 2
restenosis [7]: inhibits restenosis
blood plasma ratio ([8]; rapamycin 482 ng/ml): 1.1
blood plasma ratio [8, 14]: 12 ± 2
Kp ([8]; rapamycin 482 ng/ml): 1.3
Kp [8, 14]: 23.7 ± 3.9
binding with FKBP in formed blood elements (erythrocytes) (FKBP): bind reversibly with the binding protein FKBP
hemolysis (erythrocytes): does not cause hemolysis
immune response in experimental allergic encephalomyolitis [9]: inhibits the immune response
rejection of the transplanted tissue or organ [4]: reduce rejection of the transplanted tissue or organ
antitumor activity [10]: antitumor activity
immune response in adjuvant arthritis (adjuvant arthritis): inhibits the immune response
blood plasma ratio [11]: 10 ± 6
suppressive activity of Cyclosporin A in T-cell proliferation, IL-2 production and IL-2R expression (mouse T-cells): potentiates the suppressive activity of Cyclosporin A
graft rejection (graft rejection): reduce graft rejection
humoral (IgE-like) antibodies [12]: prevents humoral (IgE-like) antibodies
blood plasma ratio ([13]; rapamycin 38 ng/ml): 1.3
blood plasma ratio ([13]; rapamycin 200 ng/ml): 0.8
Kp ([13]; rapamycin 38 ng/ml): 1.7
Kp ([13]; rapamycin 200 ng/ml): 0.5

CC1\C=C/C=C\C=C\C=C\C=C\C=C\C=C\C(OC2OC(C)C(O)C(N)C2O)CC2OC(O)(CC(O)CC(O)CC(O)CC(O)CC(=O)CC(O)CC(=O)OC1C(C)CCC(O)CC(=O)c1ccc(N)cc1)CC(O)C2C(=O)O (centres unmarked) [vacidin A]
binding with red blood cells and hemolysis (red blood cells [1]): bind with red blood cells and cause hemolysis to occur

cyclosporin A
rejection of the transplanted tissue or organ [4]: reduce rejection of the transplanted tissue or organ

methylprednisone
rejection of the transplanted tissue or organ [4]: reduce rejection of the transplanted tissue or organ
